Test results: PMC12333940, “A prometabolite strategy inhibits cardiometabolic disease in an ApoE^–/– murine model of atherosclerosis” (JCI Insight, 2025)
Where “and” joins values, the source holds several entries; their conditions need not be identical. Identical values can stand only once.

Tests used:
[1] = system: bone marrow–derived dendritic cells (BMDCs); set-up: method as in PMID 38561491, PMID 27897220; settings: BMDCs ref 28, 40; cited from earlier work
[2] = system: HDAC; set-up: method as in PMID 38561491; settings: RAW 264.7 ref 28; cited from earlier work
[3] = Body weight during treatment; format: in vivo, ApoE^–/– mice; settings: in g (unit assumed)
Source text: SerBut water was pH adjusted using 10 M NaOH to a final pH of 7.4. […] After 6 weeks, mice were euthanized. […] The liver was harvested and part was homogenized in tissue protein extraction reagent buffer (Invitrogen, 78510) supplemented with protease inhibitor mini tablets (Thermo Fisher Scientific, PIA32955) for Western blotting and qPCR.

Which results are given for `CCCC(=O)OC[C@H](N)C(=O)O` [SerBut, O-butyryl-L-serine]?
inflammatory marker expression [1]: suppressed inflammatory marker expression; HDAC inhibition activity [2]: maintained attenuated HDAC inhibition activity; Weight ([3]; week 0, 150 mM in drinking water with HFD, individual mice): 18.7 and 18.3 and 20 and 18.8 and 17 and 19.2 and 18.6 and 18.9 and 20.5 and 19.6; Weight ([3]; week 2): 20.9 and 20.5 and 20.2 and 18.7 and 20 and 20.6 and 20.3 and 21.2; Weight ([3]; week 2.5): 21.2 and 20.6 and 21.6 and 19.8 and 21.4 and 21.5 and 20.7 and 21.9; Weight ([3]; week 5): 24 and 22.2 and 21.8 and 20.2 and 21.1 and 22.4 and 21.4 and 22.7; Weight ([3]; week 6): 23.8 and 21.9 and 22.9 and 19.2 and 21.6 and 22.7 and 21.4 and 23.1
